Assay [1] has as its target T1, HCV polymerase (NS5B) type 1b (Hepatitis C virus genotype 1b, UniProt P26663).
T1 construct: a region encoding NS5B (J Virol 1991 March, 65(3), 1105-13, 544 amino acids after deletion of 47 amino acids on the C-terminal); 6xHis (C); made in house; host or cells: Escherichia coli
Briefly: Assay of enzyme (HCV polymerase) inhibitory activity, type 1b enzyme. It counts as biochemical, HCV BK strain (type 1b). Put shortly: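 IC50 derived from [3H]UTP incorporation into TCA-insoluble RNA, compared with and without test compound. Reaction (25 °C, 60 min, Tris pH 7.5, 5 mM MgCl2): E. coli-expressed 1b NS5B Δ47 with His tag at 0.5 μg/ml, 5 μg/ml run-off substrate RNA, ATP/GTP/CTP 50 μM, UTP 2 μM.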

Assay [2] addresses T2, HCV polymerase (NS5B) type 1a (Hepatitis C virus genotype 1a, UniProt P26664).
T2 construct: made in house; host or cells: Escherichia coli (by the 'similar method' of the 1b enzyme)
Briefly: Assay of enzyme (HCV polymerase) inhibitory activity, type 1a enzyme. Type of assay: biochemical, HCV type 1a (cloned from the blood of patients). In outline: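 Reactions ran 60 min at 25° C in 20 mM Tris-HCl pH 7.5, 5 mM MgCl2, 50 mM NaCl, holding genotype 1a NS5B (1.5 μg/ml, Δ47 C-terminus, 6His), substrate RNA 5 μg/ml, UTP 2 μM with tritiated UTP and other NTPs 50 μM. IC50 derived from incorporated radiolabel in filter-trapped RNA relative to uninhibited reaction.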

Setting [3] is: HCV polymerase inhibitory activity IC50, 1b, type 1b enzyme.
The mark [4] stands for this setting: HCV polymerase inhibitory activity IC50, 1a, type 1a enzyme.
Setting [5] is: HCV polymerase inhibitory activity (IC50), 1b, type 1b enzyme 0.5 μg/ml, 25° C., 60 min.
Where [6] appears, read: HCV polymerase inhibitory activity (IC50), 1a, type 1a enzyme 1.5 μg/ml, 25° C., 60 min.

The values that follow come from patent US8017612B2, “Piperazine compound and use thereof as a HCV polymerase inhibitor” (priority 2006, dated 2011).

Each structure is given as a SMILES string.

`CCC(F)(F)c1ccc(CNC(=O)[C@H]2CN(C(=O)/C=C\C(=O)O)CCN2S(=O)(=O)c2ccc(OC(F)(F)F)cc2)cc1` [Example 666, (Z)-4-[(R)-3-[4-(1,1-difluoro-propyl)-benzylcarbamoyl]-4-(4-trifluoromethoxy-benzenesulfonyl)-piperazin-1-yl]-4-oxo-but-2-enoic acid]: the IC50 in assay [1] (setting [3]) and in assay [2] (setting [4]) was more than 1 µM each time.
For `COCc1ncc2sc(N3CCN(S(=O)(=O)c4ccc(OC(F)(F)F)cc4)[C@@H](C(=O)NCc4ccc(OC(F)(F)F)cc4)C3)nc2n1` [Example 1043, (R)-4-(5-methoxymethyl-thiazolo[4,5-d]pyrimidin-2-yl)-1-(4-trifluoromethoxy-benzenesulfonyl)-piperazine-2-carboxylic acid 4-trifluoromethoxy-benzylamide], the IC50 in assay [1] (setting [3]) and in assay [2] (setting [4]) was less than 0.1 µM in each case.
In the case of `CCCc1ccc(CNC(=O)[C@H]2CN(c3nc(C)c(S(N)(=O)=O)s3)CCN2S(=O)(=O)c2ccc(OC(F)(F)F)cc2)cc1` [Example 827, (R)-4-(4-methyl-5-sulfamoyl-thiazol-2-yl)-1-(4-trifluoromethoxy-benzenesulfonyl)-piperazine-2-carboxylic acid 4-propyl-benzylamide], the IC50 in assay [1] (setting [3]) and in assay [2] (setting [4]) was less than 0.1 µM each time.
Take `O=C(O)Cn1ncc2sc(N3CCN(S(=O)(=O)c4ccc(OC(F)(F)F)cc4)[C@@H](C(=O)NCc4ccc(OC(F)F)c(F)c4)C3)nc2c1=O` [Example 1121]: the IC50 in assay [1] (setting [3]) and in assay [2] (setting [4]) was less than 0.1 µM in each case.
On to `CC(=O)N1CCN(S(=O)(=O)c2ccc(C(C)C)cc2)[C@H](C(=O)NCc2ccc(C(F)(F)F)cc2)C1` [Example 1117, (S)-4-acetyl-1-(4-isopropyl-benzenesulfonyl)-piperazine-2-carboxylic acid 4-trifluoromethyl-benzylamide], for which the IC50 in assay [1] (setting [3]) and in assay [2] (setting [4]) was more than 1 µM in each case.
For the molecule `CCC(F)(F)c1ccc(CNC(=O)[C@H]2CN(C(=O)Nc3cc(C)on3)CCN2S(=O)(=O)c2ccc(OC(F)(F)F)cc2)cc1` [Example 526, (R)-4-(4-trifluoromethoxy-benzenesulfonyl)-piperazine-1,3-dicarboxylic acid 3-[4-(1,1-difluoro-propyl)-benzylamide] 1-[(5-methyl-isoxazol-3-yl)-amide]], the IC50 in assay [1] (setting [5]) and in assay [2] (setting [6]) was 0.1 to 1 µM each time.
As for `Cc1nc(N2CCN(S(=O)(=O)c3ccc(C(F)(F)F)cc3)[C@@H](C(=O)NCc3ccc(C(C)C)cc3)C2)ncc1C(=O)OCc1ccccc1` [Example 336, 2-[(R)-3-(4-isopropyl-benzylcarbamoyl)-4-(4-trifluoromethyl-benzenesulfonyl)-piperazin-1-yl]-4-methyl-pyrimidine-5-carboxylic acid benzyl ester], the concentration for half-maximal inhibition (IC50) in assay [1] (setting [5]) and in assay [2] (setting [6]) was more than 1 µM throughout.
As for `CCCc1ccc(CNC(=O)[C@H]2CN(c3cnc(C(=O)O)c(C)n3)CCN2S(=O)(=O)c2ccc(OC(F)(F)F)cc2)cc1` [Example 449, (R)-6′-methyl-3-(4-propyl-benzylcarbamoyl)-4-(4-trifluoromethoxy-benzenesulfonyl)-3,4,5,6-tetrahydro-2H-[1,2′]bipyrazinyl-5′-carboxylic acid], the IC50 in assay [1] (setting [5]) and in assay [2] (setting [6]) was less than 0.1 µM each time.
Regarding `CCCc1ccc(CNC(=O)[C@H]2CN(c3nc4c(s3)CN(Cc3ccccc3)CC4)CCN2S(=O)(=O)c2ccc(OC(F)(F)F)cc2)cc1` [Example 561, (R)-4-(5-benzyl-4,5,6,7-tetrahydro-thiazolo[5,4-c]pyridin-2-yl)-1-(4-trifluoromethoxy-benzenesulfonyl)-piperazine-2-carboxylic acid 4-propyl-benzylamide], the IC50 in assay [1] (setting [5]) and in assay [2] (setting [6]) was less than 0.1 µM in each case.
Consider `CCCN1CCC(CNC(=O)[C@H]2CN(C(C)=O)CCN2S(=O)(=O)c2ccc(OC(F)(F)F)cc2)CC1` [Example 681, (R)-4-acetyl-1-(4-trifluoromethoxy-benzenesulfonyl)-piperazine-2-carboxylic acid (1-propyl-piperidin-4-ylmethyl)-amide], for which the IC50 in assay [1] (setting [3]) and in assay [2] (setting [4]) was more than 1 µM throughout.
Consider `CCC(F)(F)c1ccc(CNC(=O)[C@H]2CN(c3cnc4cnccc4n3)CCN2S(=O)(=O)c2ccc(N(C)C)cc2)cc1` [Example 736, (R)-1-(4-dimethylamino-benzenesulfonyl)-4-pyrido[3,4-b]pyrazin-2-yl-piperazine-2-carboxylic acid 4-(1,1-difluoro-propyl)-benzylamide], for which the IC50 in assay [1] (setting [3]) and in assay [2] (setting [4]) was less than 0.1 µM each time.
`CC(C)Nc1ncc2sc(N3CCN(S(=O)(=O)c4ccc(OC(F)(F)F)cc4)[C@@H](C(=O)NCc4ccc(OC(F)(F)F)cc4)C3)nc2n1` [Example 973, (R)-4-(5-isopropylamino-thiazolo[4,5-d]pyrimidin-2-yl)-1-(4-trifluoromethoxy-benzenesulfonyl)-piperazine-2-carboxylic acid 4-trifluoromethoxy-benzylamide]: the IC50 in assay [1] (setting [3]) and in assay [2] (setting [4]) was less than 0.1 µM throughout.
Regarding `CC(C)c1ccc(CNC(=O)[C@H]2CN(c3ncc(C(=O)O)cn3)CCN2S(=O)(=O)c2ccc(C(F)(F)F)cc2)cc1` [Example 342, 2-[(R)-3-(4-isopropyl-benzylcarbamoyl)-4-(4-trifluoromethyl-benzenesulfonyl)-piperazin-1-yl]-pyrimidine-5-carboxylic acid], the figures for the IC50 in assay [1] (setting [5]) and in assay [2] (setting [6]) were 0.1 to 1 µM and more than 1 µM, respectively.
Turning to `CCC(F)(F)c1ccc(CNC(=O)[C@H]2CN(C(=O)CNc3cccnc3)CCN2S(=O)(=O)c2ccc(OC(F)(F)F)cc2)cc1` [Example 733, (R)-4-[2-(pyridin-3-ylamino)-acetyl]-1-(4-trifluoromethoxy-benzenesulfonyl)-piperazine-2-carboxylic acid 4-(1,1-difluoro-propyl)-benzylamide], the half-inhibitory concentration (IC50) in assay [1] (setting [3]) and in assay [2] (setting [4]) was 0.1 to 1 µM in each case.
Consider `Cc1nc(N2CCN(S(=O)(=O)c3ccc(OC(F)(F)F)cc3)[C@@H](C(=O)NCc3ccc(N4CCC4)cc3)C2)sc1C(=O)O` [Example 398, 2-[(R)-3-(4-azetidin-1-yl-benzylcarbamoyl)-4-(4-trifluoromethoxy-benzenesulfonyl)-piperazin-1-yl]-4-methyl-thiazole-5-carboxylic acid], for which the IC50 in assay [1] (setting [5]) is less than 0.1 µM; in assay [2] (setting [6]), 0.1 to 1 µM.
Turning to `O=C(NCc1ccc(C2CC2)cc1)[C@H]1CN(c2cnc3cncnc3n2)CCN1S(=O)(=O)c1ccc(OC(F)(F)F)cc1` [Example 656, (R)-4-pteridin-7-yl-1-(4-trifluoromethoxy-benzenesulfonyl)-piperazine-2-carboxylic acid 4-cyclopropyl-benzylamide], the IC50 in assay [1] (setting [5]) and in assay [2] (setting [6]) was less than 0.1 µM each time.
For the molecule `CC(C)c1ccc(CNC(=O)[C@H]2CN(C(=O)Cn3ccnc3)CCN2S(=O)(=O)c2ccc(C(F)(F)F)cc2)cc1` [Example 219, (R)-4-(2-imidazol-1-yl-acetyl)-1-(4-trifluoromethyl-benzenesulfonyl)-piperazine-2-carboxylic acid 4-isopropyl-benzylamide], the IC50 in assay [1] (setting [5]) and in assay [2] (setting [6]) was less than 0.1 µM throughout.
In the case of `CCCc1ccc(S(=O)(=O)N2CCN(c3nc(C)c(C(N)=O)s3)C[C@@H]2C(=O)NCc2ccc(C(C)C)cc2)cc1` [Example 333, (R)-4-(5-carbamoyl-4-methyl-thiazol-2-yl)-1-(4-propyl-benzenesulfonyl)-piperazine-2-carboxylic acid 4-isopropyl-benzylamide], the half-maximal inhibitory concentration (IC50) in assay [1] (setting [5]) and in assay [2] (setting [6]) was less than 0.1 µM in each case.

For orientation: IC50 means the concentration that inhibits the measured activity by half.
